In publication PMC11839852, “Preclinical comparison of (radio)lanthanides using mass spectrometry and nuclear imaging techniques: biodistribution of lanthanide-based tumor-targeting agents and lanthanides in ionic form” (European Journal of Nuclear Medicine and Molecular Imaging, 2024):
Marks after values point to notes of the source that are not given here.

How the values were obtained:
AR42J tumor cells = assay: In vitro cell uptake of lanthanide chloride salts; assay type: cell-based, rat
Method: (§1) A mixture of equal molar amounts of the lanthanide chloride salts (100 nM stock solutions of ^natLuCl3, ^natTbCl3, ^natGdCl3, and ^natEuCl3, diluted in saline with an adjusted pH value to 3.5‒4.0) was prepared to obtain a final concentration of 10 pmol/mL (2.5 pmol/mL per lanthanide salt) and tested with AR42J, PC-3 PIP and KB tumor cells according to the same protocol as described for the Ln-labeled biomolecules (Supplementary Material). Analogous in vitro cell uptake studies were also performed with lanthanide metal complexes of diethylenetriaminepentaacetic acid (DTPA, Sigma Aldrich Chemie, Steinheim, Germany) to obtain a final concentration of 10 pmol/mL (2.5 pmol/mL per lanthanide complex) (Supplementary Material).
(§2) Cell uptake studies were performed in triplicate in 3‒6 independent experiments and the results presented as the average ± standard deviation (SD). Data were normalized to the values measured for the ^175Lu-labeled tumor targeting agent or [^175Lu]LuCl3, which were set as 100% and zero was defined as 0%. Statistical significance of the normalized data was assessed for the comparison of the values obtained for terbium, gadolinium and europium analogues with those obtained for the lutetium counterparts by applying one-way ANOVA with the Dunnett’s post-test using GraphPad Prism software (version 8). A p-value of < 0.05 was considered statistically significant.
(§3) Methods: The same experimental setting as described for Ln-labeled biomolecules was applied to perform uptake and internalization studies with the lanthanide salts (LnCl3; Ln = ^natLu, ^natTb, ^natGd and ^natEu). The applied solution was a mixture of the four lanthanide salts yielding a final concentration of 0.4 µM. Of these mixtures, 25 μL were added to the corresponding well with tumor cells. The cells were incubated for 1 h and 4 h, respectively, at 37 °C and 5% CO2. After incubation, the tumor cells were treated as described for the Ln-labeled biomolecules and processed for the measurement with ICP-MS.

[1] = system: non-tumor-bearing immunocompetent FVB mice; assay: Biodistribution of lanthanide chloride salts LnCl3 (multiplexed ICP-MS); assay type: in vivo; settings: for Tissue uptake: Blood / Tissue uptake: Bone / Tissue uptake: Brain / Tissue uptake: Heart / Tissue uptake: Intestines / Tissue uptake: Kidneys / Tissue uptake: Liver / Tissue uptake: Lung / Tissue uptake: Muscle / Tissue uptake: Pancreas / Tissue uptake: Salivary glands / Tissue uptake: Spleen / Tissue uptake: Stomach: non-tumor-bearing mice
PC-3 PIP tumor cells = assay: In vitro cell uptake of lanthanide chloride salts; assay type: cell-based, human
Method: as §1, §2, §3

KB tumor cells = assay: In vitro cell uptake of lanthanide chloride salts; assay type: cell-based, human; settings: 1 h incubation
Method: as §1, §2, §3

[2] = 24 h p.i., estimated ratios (organ <0.5% ID/g)
[3] = 96 h p.i., estimated ratios (organ <0.5% ID/g)

[Cl][Tb]([Cl])[Cl] [[^159Tb]TbCl3]
Lanthanide uptake compared with [175Lu]LuCl3 (AR42J tumor cells): No significant difference
Organ ratios: Blood-to-bone ([1]; 1 h p.i.): 0.38 ± 0.08
Organ ratios: Blood-to-liver ([1]; 1 h p.i.): 0.19 ± 0.05
Organ ratios: Liver-to-bone ([1]; 1 h p.i.): 2.0 ± 0.3
Tissue uptake: Blood ([1]; 1 h p.i.): 5.0 ± 0.9 % ID/g
Tissue uptake: Bone ([1]; 1 h p.i.): 13 ± 2 % ID/g
Tissue uptake: Brain ([1]; 1 h p.i.): 1.1 ± 0.8 % ID/g
Tissue uptake: Heart ([1]; 1 h p.i.): 4.8 ± 2.2 % ID/g
Tissue uptake: Intestines ([1]; 1 h p.i.): 2.6 ± 1.0 % ID/g
Tissue uptake: Kidneys ([1]; 1 h p.i.): 8.7 ± 2.5 % ID/g
Tissue uptake: Liver ([1]; 1 h p.i.): 27 ± 3 % ID/g
Tissue uptake: Lung ([1]; 1 h p.i.): 4.8 ± 1.2 % ID/g
Tissue uptake: Muscle ([1]; 1 h p.i.): 1.6 ± 0.9 % ID/g
Tissue uptake: Pancreas ([1]; 1 h p.i.): 2.2 ± 1.0 % ID/g
Tissue uptake: Salivary glands ([1]; 1 h p.i.): 2.4 ± 1.4 % ID/g
Tissue uptake: Spleen ([1]; 1 h p.i.): 6.1 ± 1.4 % ID/g
Tissue uptake: Stomach ([1]; 1 h p.i.): 6.0 ± 2.3 % ID/g
Organ ratios: Liver-to-bone ([1]; 24 h p.i.): 1.6 ± 0.5
Organ ratios: Blood-to-bone [1, 2]: <0.04^*
Organ ratios: Blood-to-liver [1, 2]: <0.02^*
Tissue uptake: Blood ([1]; 24 h p.i.): <0.5 % ID/g
Tissue uptake: Bone ([1]; 24 h p.i.): 15 ± 2 % ID/g
Tissue uptake: Brain ([1]; 24 h p.i.): <0.5 % ID/g
Tissue uptake: Heart ([1]; 24 h p.i.): 0.76 ± 0.10 % ID/g
Tissue uptake: Intestines ([1]; 24 h p.i.): 0.54 ± 0.05 % ID/g
Tissue uptake: Kidneys ([1]; 24 h p.i.): 3.8 ± 0.8 % ID/g
Tissue uptake: Lung ([1]; 24 h p.i.): 1.0 ± 0.1 % ID/g
Tissue uptake: Muscle ([1]; 24 h p.i.): <0.5 % ID/g
Tissue uptake: Pancreas ([1]; 24 h p.i.): <0.5 % ID/g
Tissue uptake: Salivary glands ([1]; 24 h p.i.): <0.5 % ID/g
Tissue uptake: Spleen ([1]; 24 h p.i.): 5.0 ± 1.1 % ID/g
Tissue uptake: Stomach ([1]; 24 h p.i.): 1.8 ± 0.4 % ID/g
Tissue uptake: Liver ([1]; 24 h p.i., listed as natTb): ~ 22 % ID/g
Tissue uptake: Liver ([1]; 24 h p.i., listed as terbium): 22 ± 5 % ID/g
Organ ratios: Liver-to-bone ([1]; 96 h p.i.): 0.59 ± 0.18
Organ ratios: Blood-to-bone [1, 3]: <0.03^*
Organ ratios: Blood-to-liver [1, 3]: <0.05^*
Tissue uptake: Blood ([1]; 96 h p.i.): <0.5 % ID/g
Tissue uptake: Bone ([1]; 96 h p.i.): 19 ± 4 % ID/g
Tissue uptake: Brain ([1]; 96 h p.i.): <0.5 % ID/g
Tissue uptake: Heart ([1]; 96 h p.i.): 0.73 ± 0.05 % ID/g
Tissue uptake: Intestines ([1]; 96 h p.i.): 0.52 ± 0.01 % ID/g
Tissue uptake: Kidneys ([1]; 96 h p.i.): 2.0 ± 0.1 % ID/g
Tissue uptake: Liver ([1]; 96 h p.i.): 11 ± 1 % ID/g
Tissue uptake: Lung ([1]; 96 h p.i.): 0.91 ± 0.10 % ID/g
Tissue uptake: Muscle ([1]; 96 h p.i.): <0.5 % ID/g
Tissue uptake: Pancreas ([1]; 96 h p.i.): <0.5 % ID/g
Tissue uptake: Salivary glands ([1]; 96 h p.i.): <0.5 % ID/g
Tissue uptake: Spleen ([1]; 96 h p.i.): 3.1 ± 0.2 % ID/g
Tissue uptake: Stomach ([1]; 96 h p.i.): 2.2 ± 0.4 % ID/g
Lanthanide uptake compared with [175Lu]LuCl3 (PC-3 PIP tumor cells): No significant difference
Detected amount compared with lutetium (KB tumor cells): significantly lower

[Cl-].[Cl-].[Cl-].[Eu+3] [[^153Eu]EuCl3]
Lanthanide uptake compared with [175Lu]LuCl3 (AR42J tumor cells): lower uptake
Organ ratios: Blood-to-bone ([1]; 1 h p.i.): 0.40 ± 0.05
Organ ratios: Blood-to-liver ([1]; 1 h p.i.): 0.14 ± 0.02
Organ ratios: Liver-to-bone ([1]; 1 h p.i.): 3.0 ± 0.4
Tissue uptake: Blood ([1]; 1 h p.i.): 5.5 ± 0.6 % ID/g
Tissue uptake: Bone ([1]; 1 h p.i.): 14 ± 2 % ID/g
Tissue uptake: Brain ([1]; 1 h p.i.): 1.2 ± 0.9 % ID/g
Tissue uptake: Heart ([1]; 1 h p.i.): 5.3 ± 2.1 % ID/g
Tissue uptake: Intestines ([1]; 1 h p.i.): 2.6 ± 0.9 % ID/g
Tissue uptake: Kidneys ([1]; 1 h p.i.): 8.1 ± 2.1 % ID/g
Tissue uptake: Liver ([1]; 1 h p.i.): 41 ± 5 % ID/g
Tissue uptake: Lung ([1]; 1 h p.i.): 4.8 ± 1.1 % ID/g
Tissue uptake: Muscle ([1]; 1 h p.i.): 1.7 ± 1.0 % ID/g
Tissue uptake: Pancreas ([1]; 1 h p.i.): 2.2 ± 1.0 % ID/g
Tissue uptake: Salivary glands ([1]; 1 h p.i.): 2.7 ± 1.7 % ID/g
Tissue uptake: Spleen ([1]; 1 h p.i.): 6.9 ± 1.6 % ID/g
Tissue uptake: Stomach ([1]; 1 h p.i.): 6.0 ± 2.3 % ID/g
Organ ratios: Liver-to-bone ([1]; 24 h p.i.): 2.7 ± 0.8
Organ ratios: Blood-to-bone [1, 2]: <0.04^*
Organ ratios: Blood-to-liver [1, 2]: <0.01^*
Tissue uptake: Blood ([1]; 24 h p.i.): <0.5 % ID/g
Tissue uptake: Bone ([1]; 24 h p.i.): 14 ± 3 % ID/g
Tissue uptake: Brain ([1]; 24 h p.i.): <0.5 % ID/g
Tissue uptake: Heart ([1]; 24 h p.i.): 1.0 ± 0.1 % ID/g
Tissue uptake: Intestines ([1]; 24 h p.i.): 0.58 ± 0.06 % ID/g
Tissue uptake: Kidneys ([1]; 24 h p.i.): 3.8 ± 0.9 % ID/g
Tissue uptake: Lung ([1]; 24 h p.i.): 1.1 ± 0.2 % ID/g
Tissue uptake: Muscle ([1]; 24 h p.i.): <0.5 % ID/g
Tissue uptake: Pancreas ([1]; 24 h p.i.): <0.5 % ID/g
Tissue uptake: Salivary glands ([1]; 24 h p.i.): 0.53 ± 0.17 % ID/g
Tissue uptake: Spleen ([1]; 24 h p.i.): 5.6 ± 1.1 % ID/g
Tissue uptake: Stomach ([1]; 24 h p.i.): 1.9 ± 0.5 % ID/g
Tissue uptake: Liver ([1]; 24 h p.i., listed as europium): 37 ± 7 % ID/g
Tissue uptake: Liver ([1]; 24 h p.i., listed as natEu): ~ 37 % ID/g
Organ ratios: Liver-to-bone ([1]; 96 h p.i.): 1.3 ± 0.2
Organ ratios: Blood-to-bone [1, 3]: <0.03^*
Organ ratios: Blood-to-liver [1, 3]: <0.02^*
Tissue uptake: Blood ([1]; 96 h p.i.): <0.5 % ID/g
Tissue uptake: Bone ([1]; 96 h p.i.): 18 ± 3 % ID/g
Tissue uptake: Brain ([1]; 96 h p.i.): <0.5 % ID/g
Tissue uptake: Heart ([1]; 96 h p.i.): 0.83 ± 0.05 % ID/g
Tissue uptake: Intestines ([1]; 96 h p.i.): 0.53 ± 0.04 % ID/g
Tissue uptake: Kidneys ([1]; 96 h p.i.): 1.9 ± 0.1 % ID/g
Tissue uptake: Liver ([1]; 96 h p.i.): 23 ± 1 % ID/g
Tissue uptake: Lung ([1]; 96 h p.i.): 0.88 ± 0.15 % ID/g
Tissue uptake: Muscle ([1]; 96 h p.i.): <0.5 % ID/g
Tissue uptake: Pancreas ([1]; 96 h p.i.): <0.5 % ID/g
Tissue uptake: Salivary glands ([1]; 96 h p.i.): <0.5 % ID/g
Tissue uptake: Spleen ([1]; 96 h p.i.): 3.5 ± 0.3 % ID/g
Tissue uptake: Stomach ([1]; 96 h p.i.): 2.3 ± 0.3 % ID/g
